Test results as given in publication PMC2724550, “Citrus auraptene suppresses cyclin D1 and significantly delays N-methyl nitrosourea induced mammary carcinogenesis in female Sprague-Dawley rats” (BMC Cancer, 2009).

Assay: Rat body weight and gross behavior in the tumor study
Format: in vivo, female Sprague-Dawley rats
Description: Rats (28 days of age) were divided up randomly into groups of 24–26 each and were handled daily to get them accustomed to human touch. At 42 days of age the rats were shifted to the test diet. Control group and MNU only group were fed with Teklad (powdered diet) only. MNU/Auraptene 200 ppm group and MNU/Auraptene 500 ppm group received 200 ppm and 500 ppm of auraptene respectively, mixed in the diet for the duration of the study. The doses were selected from the pilot study conducted with a small number of animals. In addition to the 200 ppm dose of auraptene, which indicated the chemopreventive effect of auraptene, a higher dose of auraptene at 500 ppm was added to this study to see any increased chemopreventive effects. Auraptene has been administered in diet at 100 ppm and 500 ppm in other models of cancer. The diet was prepared once a week and stored in cold room. The food was replaced on Monday, Wednesday and Friday or as needed. […] At 50 days of age all the groups except the control group received intraperitoneal MNU injection (50 mg/kg bw in sterile acidified saline). The control group received vehicle only. […] Any tumors felt during palpation were recorded by location. […]
The rat body weight data was compared between groups by One-Way ANOVA followed by Tukey test. […] The cell proliferation assays and western blot data were analyzed by One-Way ANOVA followed by Tukey test.

In the case of `CC(C)=CCC/C(C)=C/COc1ccc2ccc(=O)oc2c1` [auraptene], the “effect on rat body weight” value (200 and 500 ppm in diet, MNU treated groups) is reported as “did not significantly affect body weight” and the tolerability in rats (dietary auraptene up to 500 ppm, no observable change in gross behavior, no significant weight loss) is reported as “well tolerated”.
